Reference: patent US20230274799A1, “SYSTEMS AND METHODS FOR PATIENT STRATIFICATION AND IDENTIFICATION OF POTENTIAL BIOMARKERS” (Berg LLC, priority 2016, published 2023)

Columns and labels:
Type in all cases: in vivo, human
[1] = Phase I dose-escalation trial, dose limiting toxicities of Coenzyme Q10 in combination with chemotherapy (Arm 2)
Description: The clinical trial is a multicenter, open-label, non-randomized, dose-escalation study to examine the dose limiting toxicities (DLT) of Coenzyme Q10 administered as a 144-hour continuous intravenous (IV) infusion as monotherapy (treatment Arm 1) and in combination with chemotherapy (treatment Arm 2) in patients with solid tumors. A broad range of solid tumors has been evaluated, including prostate, colon, breast, lung and pancreatic tumors, as shown in Tables 1 and 2 below. Coenzyme Q10 was administered in three consecutive 48 hour doses or two consecutive 72 hour doses, depending on the dose level. Three standard weekly chemotherapy regimens of gemcitabine, 5-fluorouracil, or docetaxel were evaluated in combination with Coenzyme Q10. Eligible patients are 18 years of age or older, afflicted with solid tumors, and relapsed/refractory to standard therapy. 85 patients have been enrolled in the trial. The monotherapy arm received Coenzyme Q10 for 6 days in continuous infusion in 28 day cycles, and the combination arms (gemcitabine, 5-fluorouracil, or docetaxel) were primed for 3 weeks with Coenzyme Q10 before initiation of standard chemotherapy, followed by weekly dosing in a 6 week cycle.
The study is a standard 3+3 dose escalation design with the dose escalated in successive cohorts of 3 to 6 patients each. […]

[2] = Phase I trial, adverse events (CTCAE v4.02)
Description: The study is a standard 3+3 dose escalation design with the dose escalated in successive cohorts of 3 to 6 patients each. Toxicity at each dose level is graded according to National Cancer Institute Common Terminology Criteria for Adverse Events (CTCAE v4.02). Safety oversight is provided by the Cohort Review Committee (CRC). If none of the 3 patients in a cohort experiences a DLT during Cycle 1, then 3 new patients may be entered at the next higher dose level following CRC review of safety and PK data from lower cohorts. The clinical trial is described in greater detail in WO2015/035094, which is incorporated by reference herein in its entirety.
Four grade 3 events were reported. During the time period covered by Example 1, 1503 adverse events were reported. 75 events were reported as serious. Of the serious adverse events, 27 were not related, 38 were unlikely related, 8 were possibly related, one was probably related and, one was definitely related (activated partial thromboplastin time (APTT) prolonged).
The table below contains the adverse events reported with a frequency of 4% or greater.

[3] = Pharmacokinetics of Coenzyme Q10 in plasma during and after 144-hour continuous IV infusion; parameters: Coenzyme Q10 concentration in plasma, Mean ± SD: unit not given here
Experimental: Pharmacokinetics of Coenzyme Q10 was measured in the patients at time zero and at several time points during and after the 144-hour continuous intravenous (IV) infusion with Coenzyme Q10.

[4] = Grade 2, 3*, adverse events with frequency of 4% or greater
[5] = time period covered by Example 1

COC1=C(OC)C(=O)C(C/C=C(\C)CC/C=C(\C)CC/C=C(\C)CC/C=C(\C)CC/C=C(\C)CC/C=C(\C)CC/C=C(\C)CC/C=C(\C)CC/C=C(\C)CCC=C(C)C)=C(C)C1=O [Coenzyme Q10]
Dose Limiting Toxicity ([1]; DL4 - 110 mg/kg with Gemcitabine 1,000 mg/m^2 (6 enrolled), two consecutive 72 hour infusions, cell wraps r34-r38: None to Date- need 3 more evaluable patients to determine MTD): None to Date- | Dose Limiting Toxicity ([1]; in vivo): None | Anemia, Number of Occurrences ([2]; Grade 2, 3): 38 | Anemia, Percentage of Occurrences ([2]; Grade 2, 3): (15%) | Elevated AST, Number of Occurrences ([2]; Grade 2, 3): 14 | Elevated AST, Percentage of Occurrences ([2]; Grade 2, 3): (6%) | Fatigue, Number of Occurrences ([2]; Grade 2, 3): 11 | Fatigue, Percentage of Occurrences ([2]; Grade 2, 3): (4%) | Elevated PT/PTT/INR, Number of Occurrences [2, 4]: 67 | Elevated PT/PTT/INR, Percentage of Occurrences [2, 4]: (26%) | Thrombocytopenia, Number of Occurrences ([2]; Grade 2, 3, 4*): 34 | Thrombocytopenia, Percentage of Occurrences ([2]; Grade 2, 3, 4*): (13%) | Hypertriglyceridemia, Number of Occurrences ([2]; Grade 2, 4*): 15 | Hypertriglyceridemia, Percentage of Occurrences ([2]; Grade 2, 4*): (6%) | Number of grade 3 PT/PTT/INR prolongation events reported ([2]; in vivo): Four | Most common related adverse events ([2]; mitigated after Vitamin K administration): grade 1-2 prothrombin time (PT)/partial thromboplastin time(PTT)/International Normalized Ratio (INR) prolongation | Serious adverse events not related ([2]; of 75 serious events): 27 | Serious adverse events possibly related ([2]; of 75 serious events): 8 | Serious adverse events probably related ([2]; of 75 serious events): one | Serious adverse events unlikely related ([2]; of 75 serious events): 38 | Serious adverse events definitely related ([2]; of 75 serious events, activated partial thromboplastin time (APTT) prolonged): one | Number of adverse events reported [2, 5]: 1503 | Number of events reported as serious [2, 5]: 75 | Coenzyme Q10 concentration in plasma, Mean ± SD ([3]; 220 mg/kg/week, Arm 2, n = 9 (footnote c), time 96 hr): 348 ± 225^c | Coenzyme Q10 concentration in plasma, Mean ± SD ([3]; 220 mg/kg/week, Arm 2, n = 9 (footnote c), time 148 hr): 250 ± 251^c | Coenzyme Q10 concentration in plasma, Mean ± SD ([3]; 220 mg/kg/week, Arm 2, n = 11 (footnote b), time 4 hr): 158 ± 57^b | Coenzyme Q10 concentration in plasma, Mean ± SD ([3]; 220 mg/kg/week, Arm 2, n = 11 (footnote b), time 140 hr): 378 ± 244^b | Coenzyme Q10 concentration in plasma, Mean ± SD ([3]; 220 mg/kg/week, Arm 2, n = 11 (footnote b), time 146 hr): 282 ± 207^b | Coenzyme Q10 concentration in plasma, Mean ± SD ([3]; 220 mg/kg/week, Arm 2, n = 12 (footnote a), time 1 hr): 150 ± 54^a | Coenzyme Q10 concentration in plasma, Mean ± SD ([3]; 220 mg/kg/week, Arm 2, n = 12 (footnote a), time 73 hr): 227 ± 212^a | Coenzyme Q10 concentration in plasma, Mean ± SD ([3]; 220 mg/kg/week, Arm 2, n = 12 (footnote a), time 74 hr): 226 ± 193^a | Coenzyme Q10 concentration in plasma, Mean ± SD ([3]; 220 mg/kg/week, Arm 2, n = 12 (footnote a), time 143.5 hr): 363 ± 221^a | Coenzyme Q10 concentration in plasma, Mean ± SD ([3]; 220 mg/kg/week, Arm 2, n = 13, time 0 hr): 0 | Coenzyme Q10 concentration in plasma, Mean ± SD ([3]; 220 mg/kg/week, Arm 2, n = 13, time 2 hr): 163 ± 66^ | Coenzyme Q10 concentration in plasma, Mean ± SD ([3]; 220 mg/kg/week, Arm 2, n = 13, time 24 hr): 251 ± 155 | Coenzyme Q10 concentration in plasma, Mean ± SD ([3]; 220 mg/kg/week, Arm 2, n = 13, time 71.5 hr): 255 ± 199 | Coenzyme Q10 concentration in plasma, Mean ± SD ([3]; 220 mg/kg/week, Arm 2, n = 13, time 142 hr): 358 ± 214 | Coenzyme Q10 concentration in plasma, Mean ± SD ([3]; 274 mg/kg/week, Arm 1, n = 3 (so in the source), time 0 hr): 0 | Coenzyme Q10 concentration in plasma, Mean ± SD ([3]; 274 mg/kg/week, Arm 1, n = 3 (so in the source), time 1 hr): 173 ± 36 | Coenzyme Q10 concentration in plasma, Mean ± SD ([3]; 274 mg/kg/week, Arm 1, n = 3 (so in the source), time 2 hr): 175 ± 42 | Coenzyme Q10 concentration in plasma, Mean ± SD ([3]; 274 mg/kg/week, Arm 1, n = 3 (so in the source), time 4 hr): 185 ± 51
